Assay results reported in patent US7932261B2, “Macrocycle derivatives useful as inhibitors of β-secretase (BACE)” (Janssen Pharmaceutica NV, priority 2006, dated 2011).
One block for each compound: values may come before it.

How the values were obtained:
Type in all cases: biochemical
[1] = biological target: human BACE-1 (Homo sapiens, UniProt P56817); assay: in vitro BACE Assay run by CEREP (Example 15); settings: recombinant enzyme, pH 4.5, 60 min at 37° C.; for IC50: read-out: IC50
Protocol: More specifically the assay, run at 50 μL in a 96 well plate, evaluated the effect of test compound on the activity of the human BACE-1 quantified by measuring the formation of Mca-S-E-V—N-L-NH2 from Mca-S-E-V—N-L-D-A-E-F—R—K(Dnp)-R—R—NH2, using a recombinant enzyme.
The test compound, reference compound or water (control) was added to a buffer containing 0.09 M sodium acetate (pH 4.5) and 0.25 μg BACE-1. Compound interference with the fluorimetric detection method due to autofluorescence was then checked by measurements at the wavelengths defined to evaluate the enzyme activity. […] For control basal measurement, the substrate was omitted from the reaction mixture. […] The standard inhibitory reference compound was OM99-2, which was tested in each experiment at several concentrations to obtain an inhibition curve from which its IC50 value was calculated.

[2] = biological target: T1, β-secretase (BACE) (Homo sapiens, UniProt P56817); assay: in vitro BACE FS1 % Inhibition Assay (Example 13); settings: FS1 substrate, pH 5; for % Inhibition (Example 13) @ 0.3 μM / inhibition at 0.3 µM: 0.3 μM compound; for % Inhibition (Example 13) @ 1 μM / inhibition at 1 µM: 1 μM compound; for % Inhibition (Example 13) @ 3 μM / inhibition at 3 µM: 3 μM compound; for inhibition at 0.3 µM: read-out: % Inhibition (Example 13) @ 0.3 μM; for inhibition at 1 µM: read-out: % Inhibition (Example 13) @ 1 μM; for inhibition at 3 µM: read-out: % Inhibition (Example 13) @ 3 μM
T1 construct: purchased Panvera
T1 sequence (P56817 46-501): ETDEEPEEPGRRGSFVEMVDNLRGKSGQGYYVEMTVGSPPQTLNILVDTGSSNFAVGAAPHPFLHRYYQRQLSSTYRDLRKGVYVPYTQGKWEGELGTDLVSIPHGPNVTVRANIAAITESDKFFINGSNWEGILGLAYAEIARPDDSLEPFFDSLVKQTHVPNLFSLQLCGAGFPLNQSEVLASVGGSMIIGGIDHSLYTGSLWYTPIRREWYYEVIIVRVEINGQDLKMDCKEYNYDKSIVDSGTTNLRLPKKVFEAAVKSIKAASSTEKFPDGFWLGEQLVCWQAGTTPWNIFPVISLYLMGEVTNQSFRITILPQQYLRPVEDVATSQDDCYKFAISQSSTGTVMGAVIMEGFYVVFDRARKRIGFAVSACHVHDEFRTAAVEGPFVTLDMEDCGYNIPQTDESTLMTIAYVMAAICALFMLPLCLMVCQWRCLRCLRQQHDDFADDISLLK
Protocol: (§1) The following assay buffers were prepared and used in this assay: (1) enzyme assay buffer (0.05 M sodium acetate, pH5, 0.1% PEG8000 (w/v)), (2) substrate assay buffer (0.05 M sodium acetate, pH5), and (3) compound vehicle (30% DMSO in 50 mM HEPES, pH 7.4).
(§2) The FS1-substrate stock solution was prepared in DMSO as a 10 mg/mL solution. The FS1-substrate working solution was prepared by diluting the 10 mg/mL stock solution with substrate assay buffer to a final concentration of 300 μg/mL. The α-secretase (BACE) working solution was prepared by diluting a 0.83 mg/mL BACE stock solution with enzyme assay buffer to a final concentration of 4 μg/mL.
Test compounds were dissolved in DMSO to 10 mM.
(§3) The screening procedure for this assay was as follows: 15 μL of BACE working solution was pipetted into each well of a 96-well plate. To each well was then pipetted 2 μL of test compound at the selected concentration. Test compound and BACE were then mixed with a pipettor and incubated for 20 min at room temperature. To each well was then added 10 µL of the FS1 substrate working solution. The plates were then incubated for 1 hour at room temperature.
The procedure for the blank (negative control) was as follows. 15 μL of assay buffer was pipetted into each well to be used as a blank control. To each well was then added 2 μL of vehicle and 10 μL of FS1-substrate working solution. The plates were then incubated for 1 hour at room temperature.
(§4) The procedure for the positive control was as follows: 15 μL of BACE working solution was pipetted into each well to be used as a positive control. To each well was then pipetted 2 μL of vehicle. Vehicle and BACE were then mixed with a pipettor and incubated for 20 min at room temperature. To each well was then added 10 μL of the FS1 substrate working solution. The plates were then incubated for 1 hour at room temperature.
For test compounds, % inhibition was determined at each concentration as follows: […]

[3] = biological target: T1, β-secretase (BACE); assay: in vitro BACE Assay, Ki (Example 14)
Protocol: as §1
as §2, with “β-secretase” for “α-secretase”
Test compounds were dissolved in DMSO at 10 mM.
as §3, with “The” for “The screening”, “μL” for “µL”, “solution.” for “solution. The plates were then incubated for 1 hour at room temperature.”
as §4, with “solution.” for “solution. The plates were then incubated for 1 hour at room temperature.”
For test compounds, Ki inhibition was determined as follows: For each compound concentration and positive control, rate of cleavage of substrate (Vi, where i=compound concentration in μM) was determined as Δ Fluorescence/Δ time (min). Cleavage rates (Vi) were plotted as a function of inhibitor concentration in μM [I]. The Ki was then determined by fitting the following equation to the graph of [I] vs. Vi Y=aVmax/(50+24*(1+X/Ki)),

Chain of human BACE-1 (P56817 46-501): as above

Compound: NC1=Nc2ccc3cc2CN1CCCNC(=O)CCc1cccc(c1)O3 [Compound 9]
% Inhibition (Example 13) @ 0.3 μM ([2]; 0.3 µM): −26%
% Inhibition (Example 13) @ 1 μM ([2]; 1 µM): −21%
% Inhibition (Example 13) @ 3 μM ([2]; 3 µM): 1%

Compound: Nc1nc2ccc3cc2cc1C(C1CCCCC1)C/C=C/C(=O)N(C1CCCCC1)CCc1cccc(c1)O3 (centres unmarked) [Compound 39]
inhibition at 1 µM ([1]; 1 μM compound): 53%
IC50 [1]: 810 nM

Compound: NC1=Nc2ccc3cc2CN1CCN(C(=O)C1CCCCC1)CCCc1cccc(c1)O3 [Compound 10]
% Inhibition (Example 13) @ 0.3 μM [2]: −9%
% Inhibition (Example 13) @ 1 μM [2]: 5%
% Inhibition (Example 13) @ 3 μM [2]: 7%

Compound: CC(C)[C@@H]1CCC(=O)N(CCCO)CCc2cccc(c2)Oc2ccc3c(c2)CN1C(N)=N3 [Compound 25]
inhibition at 0.3 µM [2]: 65%
inhibition at 1 µM [2]: 99%
inhibition at 3 µM [2]: 111%
Ki [3]: 44 nM

Compound: NC1=Nc2ccc3cc2CN1CCNC(=O)CCC/C=C/c1ccccc1-3 [Compound 11]
inhibition at 0.3 µM [2]: -12%
inhibition at 1 µM [2]: 23%
inhibition at 3 µM [2]: 65%

Compound: CC(C)[C@@H]1CCC(=O)N(C2CCCCC2)C2CCc3ccc(cc32)Oc2ccc3c(c2)CN1C(N)=N3 (some centres unmarked) [Compound 36]
% Inhibition 0.3 μM ([1]; 0.3 μM compound): 74%
IC50 [1]: 150 nM

More lines, now with the values ahead:

inhibition at 0.3 µM ([1]; 0.3 μM compound): 93%
IC50 [1]: 83 nM
Compound: NC1=Nc2ccc3cc2CN1[C@H](C1CCCCC1)CCC(=O)N([C@H]1CC[C@@H](O)CC1)CCc1cccc(c1)O3 [Compound 35]

inhibition at 0.3 µM ([1]; 0.3 μM compound): 100%
IC50 [1]: 70 nM
Compound: NC1=Nc2cnc3cc2CN1[C@H](C1CCCCC1)CCC(=O)N(C1CCCC1)CCc1cccc(c1)O3 [Compound 37]

inhibition at 0.3 µM [2]: 120%
inhibition at 1 µM [2]: 116%
inhibition at 3 µM [2]: 125%
Compound: NC1=Nc2ccc3cc2CN1[C@H](C1CCCCC1)CCC(=O)N([C@H]1CC[C@@H](C(=O)O)CC1)CCc1cccc(c1)O3 [Compound 29]

inhibition at 0.3 µM [2]: 100%
inhibition at 1 µM [2]: 115%
inhibition at 3 µM [2]: 120%
Ki [3]: 44 nM
Compound: NC1=Nc2ccc3cc2CN1CCCCC(=O)N(C1CCCCC1)CCCc1cccc(c1)O3 [Compound 4]

% Inhibition (Example 13) @ 0.3 μM [2]: 4%
% Inhibition (Example 13) @ 1 μM [2]: 59%
% Inhibition (Example 13) @ 3 μM [2]: 110%
Compound: CCOC(=O)C1CCC(N2CCc3cccc(c3)Oc3ccc4c(c3)CN(C(N)=N4)[C@H](C(C)C)CCC2=O)CC1 (some centres unmarked) [Compound 28]

inhibition at 0.3 µM [2]: 139%
inhibition at 1 µM [2]: 145%
inhibition at 3 µM [2]: 151%
Ki [3]: 7.6 nM
Compound: NC1=Nc2cc(F)c3cc2CN1[C@H](C1CCCCC1)CCC(=O)N(C1CCCCC1)CCc1cccc(c1)O3 [Compound 17]

inhibition at 0.3 µM [2]: 95%
inhibition at 1 µM [2]: 107%
inhibition at 3 µM [2]: 115%
Compound: COc1cc2c3cc1Oc1cccc(c1)CCN(C1CCCCC1)C(=O)CC[C@@H](C1CCCCC1)N(C3)C(N)=N2 [Compound 18]

% Inhibition (Example 13) @ 0.3 μM [2]: −36%
% Inhibition (Example 13) @ 1 μM [2]: −31%
% Inhibition (Example 13) @ 3 μM [2]: 10%
Compound: NC1=Nc2ccc3cc2CN1CCN(C1CCCCC1)C(=O)CCc1cccc(c1)O3 [Compound 15]

% Inhibition (Example 13) @ 0.3 μM [2]: 39%
% Inhibition (Example 13) @ 1 μM [2]: 37%
% Inhibition (Example 13) @ 3 μM [2]: 61%
Compound: NC1=Nc2ccc3cc2CN1[C@@H](C1CCCCC1)CNC(=O)CCc1cccc(c1)O3 [Compound 16]
